Source: patent US9579408B2, “PET/SPECT agents for applications in biomedical imaging” (Washington University, priority 2011, dated 2017)
Read-outs that look alike come from different tables or passages of the source.

Legend:
MDR1 Pgp (ABCB1) = conditions: mdr1a/1b (-/-) (dKO) mice, n = 3
[1] = NanoSPECT/CT imaging in rat; type: in vivo; conditions: i.v. tail-vein, 30 min and 250 min post-injection
Protocol: (FIG. 4) and 250 min. (FIG. 5) post-injection. The arrows indicate heart uptake.

[2] = Quantitative biodistribution in wild-type (WT) mice; conditions: n = 3
Protocol: All bioassays were performed as described in earlier publications.

[3] = rats, n = 3
[4] = rat, i.v. tail-vein, 60 min post-injection
Protocol: This Example illustrates MicroPET imaging of myocardial perfusion in a rat. In these experiments, ^68Ga-radiopharmaceutical 1B was injected intravenously into a rat tail-vein; MicroPET images were obtained 60 min. (FIG. 6) post-injection.

Compound: CC(C)Oc1cccc2c1[O][67Ga+][O]c1c(cccc1OC(C)C)C=NCC(C)(C)CNCCNCC(C)(C)CN=C2.[I-] [Agent 1A, [ENBDMP-3-isopropoxy-PI-^67Ga]^+]
- Biodistribution, blood (MDR1 Pgp (ABCB1); 5 min P.I.): 1.54 % ID/g
- Biodistribution, blood (MDR1 Pgp (ABCB1); 15 min P.I.): 0.64 % ID/g
- Biodistribution, blood (MDR1 Pgp (ABCB1); 60 min P.I.): 0.34 % ID/g
- Biodistribution, blood (MDR1 Pgp (ABCB1); 120 min P.I.): 0.19 % ID/g
- Biodistribution, brain (MDR1 Pgp (ABCB1); 5 min P.I.): 1.05 % ID/g
- Biodistribution, brain (MDR1 Pgp (ABCB1); 15 min P.I.): 0.65 % ID/g
- Biodistribution, brain (MDR1 Pgp (ABCB1); 60 min P.I.): 0.99 % ID/g
- Biodistribution, brain (MDR1 Pgp (ABCB1); 120 min P.I.): 0.96 % ID/g
- Biodistribution, heart (MDR1 Pgp (ABCB1); 5 min P.I.): 17.02 % ID/g
- Biodistribution, heart (MDR1 Pgp (ABCB1); 15 min P.I.): 10.59 % ID/g
- Biodistribution, heart (MDR1 Pgp (ABCB1); 60 min P.I.): 14.61 % ID/g
- Biodistribution, heart (MDR1 Pgp (ABCB1); 120 min P.I.): 20.29 % ID/g
- Biodistribution, kidneys (MDR1 Pgp (ABCB1); 5 min P.I.): 86.12 % ID/g
- Biodistribution, kidneys (MDR1 Pgp (ABCB1); 15 min P.I.): 84.19 % ID/g
- Biodistribution, kidneys (MDR1 Pgp (ABCB1); 60 min P.I.): 95.60 % ID/g
- Biodistribution, kidneys (MDR1 Pgp (ABCB1); 120 min P.I.): 115.23 % ID/g
- Biodistribution, liver (MDR1 Pgp (ABCB1); 5 min P.I.): 46.34 % ID/g
- Biodistribution, liver (MDR1 Pgp (ABCB1); 15 min P.I.): 46.45 % ID/g
- Biodistribution, liver (MDR1 Pgp (ABCB1); 60 min P.I.): 42.54 % ID/g
- Biodistribution, liver (MDR1 Pgp (ABCB1); 120 min P.I.): 29.82 % ID/g
- NanoSPECT/CT image finding [1]: heart uptake
- Biodistribution, blood ([2]; 5 min P.I.): 1.26 % ID/g
- Biodistribution, blood ([2]; 15 min P.I.): 0.29 % ID/g
- Biodistribution, blood ([2]; 60 min P.I.): 0.10 % ID/g
- Biodistribution, blood ([2]; 120 min P.I.): 0.07 % ID/g
- Biodistribution, brain ([2]; 5 min P.I.): 0.14 % ID/g
- Biodistribution, brain ([2]; 15 min P.I.): 0.12 % ID/g
- Biodistribution, brain ([2]; 60 min P.I.): 0.09 % ID/g
- Biodistribution, brain ([2]; 120 min P.I.): 0.06 % ID/g
- Biodistribution, heart ([2]; 5 min P.I.): 9.21 % ID/g
- Biodistribution, heart ([2]; 15 min P.I.): 8.37 % ID/g
- Biodistribution, heart ([2]; 60 min P.I.): 11.98 % ID/g
- Biodistribution, heart ([2]; 120 min P.I.): 9.81 % ID/g
- Biodistribution, kidneys ([2]; 5 min P.I.): 81.04 % ID/g
- Biodistribution, kidneys ([2]; 15 min P.I.): 83.46 % ID/g
- Biodistribution, kidneys ([2]; 60 min P.I.): 93.35 % ID/g
- Biodistribution, kidneys ([2]; 120 min P.I.): 67.91 % ID/g
- Biodistribution, liver ([2]; 5 min P.I.): 44.95 % ID/g
- Biodistribution, liver ([2]; 15 min P.I.): 33.80 % ID/g
- Biodistribution, liver ([2]; 60 min P.I.): 7.44 % ID/g
- Biodistribution, liver ([2]; 120 min P.I.): 2.90 % ID/g
- Biodistribution, blood ([3]; 5 min P.I.): 0.175 % ID/g
- Biodistribution, blood ([3]; 15 min P.I.): 0.041 % ID/g
- Biodistribution, blood ([3]; 60 min P.I.): 0.028 % ID/g
- Biodistribution, blood ([3]; 120 min P.I.): 0.012 % ID/g
- Biodistribution, brain ([3]; 5 min P.I.): 0.024 % ID/g
- Biodistribution, brain ([3]; 15 min P.I.): 0.015 % ID/g
- Biodistribution, brain ([3]; 60 min P.I.): 0.018 % ID/g
- Biodistribution, brain ([3]; 120 min P.I.): 0.016 % ID/g
- Biodistribution, heart ([3]; 5 min P.I.): 1.443 % ID/g
- Biodistribution, heart ([3]; 15 min P.I.): 1.306 % ID/g
- Biodistribution, heart ([3]; 60 min P.I.): 1.386 % ID/g
- Biodistribution, heart ([3]; 120 min P.I.): 1.516 % ID/g
- Biodistribution, kidneys ([3]; 5 min P.I.): 8.142 % ID/g
- Biodistribution, kidneys ([3]; 15 min P.I.): 5.168 % ID/g
- Biodistribution, kidneys ([3]; 60 min P.I.): 4.201 % ID/g
- Biodistribution, kidneys ([3]; 120 min P.I.): 3.543 % ID/g
- Biodistribution, liver ([3]; 5 min P.I.): 2.615 % ID/g
- Biodistribution, liver ([3]; 15 min P.I.): 0.657 % ID/g
- Biodistribution, liver ([3]; 60 min P.I.): 0.328 % ID/g
- Biodistribution, liver ([3]; 120 min P.I.): 0.203 % ID/g
- Biodistribution, lung ([3]; 5 min P.I.): 0.814 % ID/g
- Biodistribution, lung ([3]; 15 min P.I.): 0.626 % ID/g
- Biodistribution, lung ([3]; 60 min P.I.): 0.559 % ID/g
- Biodistribution, lung ([3]; 120 min P.I.): 0.591 % ID/g

Compound: CC(C)Oc1cccc2c1[O][68Ga-3]1345[O]c6c(cccc6OC(C)C)C=[N+]1CC(C)(C)C[NH+]3CC[NH+]4CC(C)(C)C[N+]5=C2.[I-] (stereo not drawn) [Agent 1B, [ENBDMP-3-isopropoxy-PI-^68Ga]^+]
- MicroPET image finding [4]: low level of signal from liver compared to the heart
